From US20230227838A1, “ENHANCED CELL SURVIVAL AGAINST BIOTIC AND ABIOTIC STRESSES THROUGH SALICYLICK ACID-INDUCED NPR1 CONDENSATES” (priority 2020, published 2023)

Key:
ubiquitinated proteins = assay: Accumulation of ubiquitinated proteins (α-Ub immunoblot of total protein); format: in vivo, Arabidopsis thaliana; conditions: WT; absent in npr1-2; SA for 6 hr
Experimental: (§1) Protein analysis and IP. Recombinant protein analysis was performed using transient expression in N. benthamiana, or stable over-expression in transgenic Arabidopsis, or expression in E. coli. Total protein extraction from plants was performed by homogenizing leaf tissue in the plant extraction buffer [50 mM Tris-HCl (pH 7.5), 150 mM NaCl, 5 mM EDTA, 0.2% Triton X-100, 0.2% Nonidet P-40] supplemented with 1 mM PMSF, 100 μM MG132, and EDTA-free protease inhibitor cocktail (Roche). For ubiquitinated protein analysis in plants, 100 μM of DUB (deubiquitinase) inhibitor (LifeSensors) and 10 mM NEM were added. Next, the lysates were cleared by centrifugation at 14,000 rpm for 15 min followed by filtering through a 0.2 μm filter. […] Pull-downs or IP experiments were done on total protein extracts by incubating protein samples in the lysis buffer overnight with indicated affinity tag or antibody conjugated to agarose or magnetic beads: GFP-trap agarose beads (Chromotek) for GFP fusions; RFP-trap agarose beads (Chromotek) for mCherry fusions; anti-HA magnetic beads (ThermoFisher) for HA tag fusions; anti-DYKDDDDK coupled magnetic agarose (ThermoFisher) for FLAG tag fusions; and glutathione magnetic agarose (ThermoFisher) for GST fusions. Unless otherwise indicated, after pull-down/IP, beads were washed 3 times and proteins were eluted by boiling in the 2×SDS sample buffer. […]

EDS1 = assay: Stability (cycloheximide) and ubiquitination of EDS1; format: in vivo, Arabidopsis thaliana; conditions: WT
Experimental: (§2) Chemical treatment, pathogen infection and cell death assays. […] At 2 days, the bacterial colonies were scored.
as §1, with “fusions.” for “fusions. Unless otherwise indicated, after pull-down/IP, beads were washed 3 times and proteins were eluted by boiling in the 2×SDS sample buffer.”

ETI activated by RPP1 = assay: ATR1/RPP1-induced cell death (conductivity assay); format: in vivo, Nicotiana benthamiana; conditions: SA/NPR1-mediated; 1 mM SA
From the text: as §2
VIGS assay. The silencing of NbNPR1 (NbNPR1-RNAi) and NbCUL3 (NbCUL3-RNAi) was done using VIGS assay performed as previously described. Ten-day-old WT N. benthamiana plants were inoculated with Agrobacteria (GV3101) carrying the helper plasmid pTRV1-LIC mixed at 1:1 with a strain carrying either pTRV2-LIC (empty vector control, E.V.), pTRV2-NbPDS (positive control), pTRV2-NbNPR1 or pTRV2-NbCUL3 vectors. Ten days later, gene silencing in the mock and SA-treated plants was verified in the systemic leaves by qPCR using gene-specific and reference gene (eIF4a) primers (Table 6). NbNPR1 silencing was additionally confirmed by analysis of NbPR1 expression. The silenced leaves were used in the standard transient expression assay by agroinfiltration using strains carrying the indicated test genes; and gene expression was assayed at 2 dpi.

## O=C(O)c1ccccc1O [SA, salicylic acid]
Ubiquitinated proteins
  accumulation of ubiquitinated proteins: concentration-dependent accumulation of ubiquitinated proteins
EDS1; 1 mM SA for 6 hr, not in npr1-2 nor eds1-2
  ubiquitination of EDS1: increased SA-mediated ubiquitination of EDS1
EDS1; 1 mM SA 4 hr then 100 μM cycloheximide, 16 hours co-incubation, unchanged in npr1-2
  amount of EDS1 in the absence of new protein synthesis: significantly decreased
ETI activated by RPP1
  ETI activated by RPP1 (effector ATR1): inhibition
